Source: PMC9250534, “Synthesis and direct assay of large macrocycle diversities by combinatorial late-stage modification at picomole scale” (Nature Communications, 2022)

target: MDM2 (Homo sapiens, UniProt Q00987); experiment: MDM2 binding screen of Libraries 3 and 4: displacement of fluorescent probe F-M8 at 750 nM macrocycle; details: Panel b, Library 3: 63 scaffolds combinatorially acylated with 15 carboxylic acids at 30 picomole scale; displacement of fluorescent peptide probe; macrocycle 750 nM
Sequence (Q00987 whole entry): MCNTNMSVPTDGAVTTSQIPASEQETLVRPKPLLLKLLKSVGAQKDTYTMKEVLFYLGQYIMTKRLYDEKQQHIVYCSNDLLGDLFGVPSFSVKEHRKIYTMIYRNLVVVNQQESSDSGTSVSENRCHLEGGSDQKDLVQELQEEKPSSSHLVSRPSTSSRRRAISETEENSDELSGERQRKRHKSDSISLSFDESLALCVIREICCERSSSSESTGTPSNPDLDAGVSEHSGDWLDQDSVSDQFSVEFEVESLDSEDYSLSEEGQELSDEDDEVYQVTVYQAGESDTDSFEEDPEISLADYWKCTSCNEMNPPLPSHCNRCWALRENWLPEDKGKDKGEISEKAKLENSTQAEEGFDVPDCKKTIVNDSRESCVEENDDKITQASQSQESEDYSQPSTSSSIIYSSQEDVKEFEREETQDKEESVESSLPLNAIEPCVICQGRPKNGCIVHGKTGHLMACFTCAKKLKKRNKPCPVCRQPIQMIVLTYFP
Outline: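 Competition with nutlin-3a was run using the fluorescein conjugate. Library members came from scaffolds reacted 6 h at room temperature with carboxylic acids (20 equiv.), HBTU and DABCO in DMSO. Quenching was overnight in Tris-Cl pH 7.4 buffer with 0.01% Tween20.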

fraction of fluorescent probe displaced	Compound
0.028	Cn1cc(C[C@@H]2NC(=O)[C@H](CNC(=O)/C=C/c3ccc4ccccc4c3)NC(=O)C3(CC3)CNC(=O)CCSSCCNC2=O)c2ccccc21 [X-Amcp-Dap-Me-Trp + Acid 112]
0.041	Cn1cc(C[C@@H]2NC(=O)[C@H](CNC(=O)CCS(=O)(=O)c3ccccc3)NC(=O)C3(CC3)CNC(=O)CCSSCCNC2=O)c2ccccc21 [X-Amcp-Dap-Me-Trp + Acid 114]
0.015	Cn1cc(C[C@@H]2NC(=O)[C@H](CNC(=O)C3COc4ccccc4O3)NC(=O)C3(CC3)CNC(=O)CCSSCCNC2=O)c2ccccc21 (stereo partly shown) [X-Amcp-Dap-Me-Trp + Acid 115]
-0.025	CN1C(=O)[C@H](CNC(=O)c2ccc(Cl)s2)NC(=O)C2(CC2)CNC(=O)CCSSCCNC(=O)[C@@H]1Cc1c[nH]c2ccccc12 [X-Amcp-Dap-NMe-Trp + Acid 14]
0.00133	CN1C(=O)[C@H](CNC(=O)c2ccc(Cl)cc2)NC(=O)C2(CC2)CNC(=O)CCSSCCNC(=O)[C@@H]1Cc1c[nH]c2ccccc12 [X-Amcp-Dap-NMe-Trp + Acid 25]
0.015	CN1C(=O)[C@H](CNC(=O)/C=C/c2ccc(OCc3ccccc3)cc2)NC(=O)C2(CC2)CNC(=O)CCSSCCNC(=O)[C@@H]1Cc1c[nH]c2ccccc12 [X-Amcp-Dap-NMe-Trp + Acid 110]
-0.012	CN1C(=O)[C@H](CNC(=O)c2cccc(Oc3ccccc3)c2)NC(=O)C2(CC2)CNC(=O)CCSSCCNC(=O)[C@@H]1Cc1c[nH]c2ccccc12 [X-Amcp-Dap-NMe-Trp + Acid 111]
0.055	CN1C(=O)[C@H](CNC(=O)CCS(=O)(=O)c2ccccc2)NC(=O)C2(CC2)CNC(=O)CCSSCCNC(=O)[C@@H]1Cc1c[nH]c2ccccc12 [X-Amcp-Dap-NMe-Trp + Acid 114]
0.008	O=C1CCSSCCNC(=O)[C@H](Cc2c[nH]c3ccccc23)NC(=O)[C@H](CNC(=O)c2ccc(Cl)s2)NC(=O)C2(CC2)CN1 [X-Amcp-Dap-Trp + Acid 14]
0.048	O=C1CCSSCCNC(=O)[C@H](Cc2c[nH]c3ccccc23)NC(=O)[C@H](CNC(=O)c2ccc(Cl)cc2)NC(=O)C2(CC2)CN1 [X-Amcp-Dap-Trp + Acid 25]
0.063	O=C1CCSSCCNC(=O)[C@H](Cc2c[nH]c3ccccc23)NC(=O)[C@H](CNC(=O)c2ccc3ccccc3c2)NC(=O)C2(CC2)CN1 [X-Amcp-Dap-Trp + Acid 107]
0.068	O=C(/C=C/c1ccc(Cl)cc1)NC[C@@H]1NC(=O)C2(CC2)CNC(=O)CCSSCCNC(=O)[C@H](Cc2c[nH]c3ccccc23)NC1=O [X-Amcp-Dap-Trp + Acid 108]
0.015	O=C(/C=C/c1ccc(OCc2ccccc2)cc1)NC[C@@H]1NC(=O)C2(CC2)CNC(=O)CCSSCCNC(=O)[C@H](Cc2c[nH]c3ccccc23)NC1=O [X-Amcp-Dap-Trp + Acid 110]
-0.00533	O=C(CCS(=O)(=O)c1ccccc1)NC[C@@H]1NC(=O)C2(CC2)CNC(=O)CCSSCCNC(=O)[C@H](Cc2c[nH]c3ccccc23)NC1=O [X-Amcp-Dap-Trp + Acid 114]
-0.012	O=C1CCSSCCNC(=O)[C@H](Cc2cccc3ccccc23)NC(=O)CN(CCNC(=O)c2ccc(Cl)cc2)C(=O)C2(CC2)CN1 [X-Amcp-N-Aeg-1-NaI + Acid 25]
0.011	O=C1CCSSCCNC(=O)[C@H](Cc2cccc3ccccc23)NC(=O)CN(CCNC(=O)c2ccc3ccccc3c2)C(=O)C2(CC2)CN1 [X-Amcp-N-Aeg-1-NaI + Acid 107]
0.035	O=C(/C=C/c1ccc(Cl)cc1)NCCN1CC(=O)N[C@@H](Cc2cccc3ccccc23)C(=O)NCCSSCCC(=O)NCC2(CC2)C1=O [X-Amcp-N-Aeg-1-NaI + Acid 108]
0.008	O=C(/C=C/c1ccc2ccccc2c1)NCCN1CC(=O)N[C@@H](Cc2cccc3ccccc23)C(=O)NCCSSCCC(=O)NCC2(CC2)C1=O [X-Amcp-N-Aeg-1-NaI + Acid 112]

fraction of fluorescent probe displaced	Compound
0.028	CC(Oc1cccc(Cl)c1)C(=O)NCCN1CC(=O)N[C@@H](Cc2cccc3ccccc23)C(=O)NCCSSCCC(=O)NCC2(CC2)C1=O (stereo partly shown) [X-Amcp-N-Aeg-1-NaI + Acid 113]
0.00133	O=C(CCS(=O)(=O)c1ccccc1)NCCN1CC(=O)N[C@@H](Cc2cccc3ccccc23)C(=O)NCCSSCCC(=O)NCC2(CC2)C1=O [X-Amcp-N-Aeg-1-NaI + Acid 114]
-0.032	O=C1CCSSCCNC(=O)[C@H](Cc2ccc3ccccc3c2)NC(=O)CN(CCNC(=O)c2ccc(Cl)s2)C(=O)C2(CC2)CN1 [X-Amcp-N-Aeg-2-Nal + Acid 14]
-0.041	O=C1CCSSCCNC(=O)C(Cc2ccc3ccccc3c2)NC(=O)CN(CCNC(=O)C2CC2c2ccccc2)C(=O)C2(CC2)CN1 (stereo not shown) [X-Amcp-N-Aeg-2-Nal + Acid 105]
0.018	O=C1CCSSCCNC(=O)[C@H](Cc2ccc3ccccc3c2)NC(=O)CN(CCNC(=O)c2ccc3ccccc3c2)C(=O)C2(CC2)CN1 [X-Amcp-N-Aeg-2-Nal + Acid 107]
0.041	O=C(/C=C/c1ccc(Cl)cc1)NCCN1CC(=O)N[C@@H](Cc2ccc3ccccc3c2)C(=O)NCCSSCCC(=O)NCC2(CC2)C1=O [X-Amcp-N-Aeg-2-Nal + Acid 108]
0.021	O=C(/C=C/c1ccc(OCc2ccccc2)cc1)NCCN1CC(=O)N[C@@H](Cc2ccc3ccccc3c2)C(=O)NCCSSCCC(=O)NCC2(CC2)C1=O [X-Amcp-N-Aeg-2-Nal + Acid 110]
0.008	CC(Oc1cccc(Cl)c1)C(=O)NCCN1CC(=O)N[C@@H](Cc2ccc3ccccc3c2)C(=O)NCCSSCCC(=O)NCC2(CC2)C1=O (stereo partly shown) [X-Amcp-N-Aeg-2-Nal + Acid 113]
0.028	O=C(CCS(=O)(=O)c1ccccc1)NCCN1CC(=O)N[C@@H](Cc2ccc3ccccc3c2)C(=O)NCCSSCCC(=O)NCC2(CC2)C1=O [X-Amcp-N-Aeg-2-Nal + Acid 114]
-0.025	O=C1CCSSCCNC(=O)[C@H](Cc2c[nH]c3cc(Cl)ccc23)NC(=O)CN(CCNC(=O)c2ccc(Cl)cc2)C(=O)C2(CC2)CN1 [X-Amcp-N-Aeg-Cl-Trp + Acid 25]
0.015	O=C(/C=C/c1ccc(OCc2ccccc2)cc1)NCCN1CC(=O)N[C@@H](Cc2c[nH]c3cc(Cl)ccc23)C(=O)NCCSSCCC(=O)NCC2(CC2)C1=O [X-Amcp-N-Aeg-Cl-Trp + Acid 110]
-0.00533	O=C1CCSSCCNC(=O)[C@H](Cc2c[nH]c3cc(Cl)ccc23)NC(=O)CN(CCNC(=O)c2cccc(Oc3ccccc3)c2)C(=O)C2(CC2)CN1 [X-Amcp-N-Aeg-Cl-Trp + Acid 111]
-0.019	O=C(/C=C/c1ccc2ccccc2c1)NCCN1CC(=O)N[C@@H](Cc2c[nH]c3cc(Cl)ccc23)C(=O)NCCSSCCC(=O)NCC2(CC2)C1=O [X-Amcp-N-Aeg-Cl-Trp + Acid 112]
-0.00533	O=C(CCS(=O)(=O)c1ccccc1)NCCN1CC(=O)N[C@@H](Cc2c[nH]c3cc(Cl)ccc23)C(=O)NCCSSCCC(=O)NCC2(CC2)C1=O [X-Amcp-N-Aeg-Cl-Trp + Acid 114]
0.00133	O=C1CCSSCCNC(=O)[C@H](Cc2c[nH]c3cc(Cl)ccc23)NC(=O)CN(CCNC(=O)C2COc3ccccc3O2)C(=O)C2(CC2)CN1 (stereo partly shown) [X-Amcp-N-Aeg-Cl-Trp + Acid 115]
0.035	O=C(/C=C/c1ccc(Cl)cc1)NCCN1CC(=O)N[C@H](Cc2c[nH]c3ccccc23)C(=O)NCCSSCCC(=O)NCC2(CC2)C1=O [X-Amcp-N-Aeg-D-Trp + Acid 108]
0.015	O=C(/C=C/c1ccc(OCc2ccccc2)cc1)NCCN1CC(=O)N[C@H](Cc2c[nH]c3ccccc23)C(=O)NCCSSCCC(=O)NCC2(CC2)C1=O [X-Amcp-N-Aeg-D-Trp + Acid 110]
0.008	O=C1CCSSCCNC(=O)[C@@H](Cc2c[nH]c3ccccc23)NC(=O)CN(CCNC(=O)c2cccc(Oc3ccccc3)c2)C(=O)C2(CC2)CN1 [X-Amcp-N-Aeg-D-Trp + Acid 111]

same assay, conditions: Panel c, Library 4: best nine scaffolds and 15 additional carboxylic acids; displacement of fluorescent probe

fraction of fluorescent probe displaced	Compound
0.077	O=C(/C=C/c1ccc(F)cc1)NC[C@@H]1NC(=O)C2(CC2)CNC(=O)CCSSCCNC(=O)[C@H](Cc2c[nH]c3ccccc23)NC1=O [X-Amcp-Dap-Trp + Acid 116]
0.069	CCCOc1ccc(/C=C/C(=O)NC[C@@H]2NC(=O)C3(CC3)CNC(=O)CCSSCCNC(=O)[C@H](Cc3c[nH]c4ccccc34)NC2=O)cc1 [X-Amcp-Dap-Trp + Acid 118]
0.069	O=C(/C=C/c1ccc(Cl)c(Cl)c1)NC[C@@H]1NC(=O)C2(CC2)CNC(=O)CCSSCCNC(=O)[C@H](Cc2c[nH]c3ccccc23)NC1=O [X-Amcp-Dap-Trp + Acid 119]
0.052	O=C(/C=C/c1cccc(Cl)c1)NC[C@@H]1NC(=O)C2(CC2)CNC(=O)CCSSCCNC(=O)[C@H](Cc2c[nH]c3ccccc23)NC1=O [X-Amcp-Dap-Trp + Acid 121]
0.052	O=C(/C=C/c1cccc(C(F)(F)F)c1)NC[C@@H]1NC(=O)C2(CC2)CNC(=O)CCSSCCNC(=O)[C@H](Cc2c[nH]c3ccccc23)NC1=O [X-Amcp-Dap-Trp + Acid 122]
0.028	CC(C)c1ccc(/C=C/C(=O)NC[C@@H]2NC(=O)C3(CC3)CNC(=O)CCSSCCNC(=O)[C@H](Cc3c[nH]c4ccccc34)NC2=O)cc1 [X-Amcp-Dap-Trp + Acid 127]
0.0035	O=C1CCSSCCNC(=O)[C@H](Cc2c[nH]c3ccccc23)NC(=O)[C@H](CNC(=O)c2cnc3ccccc3n2)NC(=O)C2(CC2)CN1 [X-Amcp-Dap-Trp + Acid 130]
